Reference: patent US5384417A, “Heptitols” (priority 1994, dated 1995)
Like-named read-outs stand apart in the source and are kept apart here.

Columns and labels:
Format in all cases: biochemical
β-Glucosidase = assay: inhibition of human liver β-glucosidase; settings: 1 mM inhibitor
Procedure: (§1) Human liver glycosidases were assayed in the absence and presence [1 mM] of each of the potential inhibitors, using the appropriate buffered 4-methylumbelliferyl glycosides as substrates, as previously described.^17 See Table I, below.

α-Galactosidase = molecular target: T1, α-Galactosidase (Homo sapiens, UniProt P06280); assay: inhibition of human liver α-galactosidase; settings: read-out: % Inhibition of Glycosidase Activity, α-Galactosidase
T1 construct: Human liver glycosidases were assayed; from tissue; host or cells: human liver
T1 sequence (P06280 32-429): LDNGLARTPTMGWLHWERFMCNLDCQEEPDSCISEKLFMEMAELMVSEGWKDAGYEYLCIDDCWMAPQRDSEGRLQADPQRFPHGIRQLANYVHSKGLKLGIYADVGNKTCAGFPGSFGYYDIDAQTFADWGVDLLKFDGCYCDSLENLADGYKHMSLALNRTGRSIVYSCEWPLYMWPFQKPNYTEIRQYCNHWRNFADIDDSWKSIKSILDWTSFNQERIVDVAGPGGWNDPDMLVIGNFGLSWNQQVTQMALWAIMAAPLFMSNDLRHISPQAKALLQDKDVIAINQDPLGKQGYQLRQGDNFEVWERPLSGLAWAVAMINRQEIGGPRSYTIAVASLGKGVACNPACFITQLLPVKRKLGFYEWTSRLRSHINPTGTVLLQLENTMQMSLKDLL
Procedure: as §1

β-Glucuronidase = molecular target: T2, β-Glucuronidase (Homo sapiens, UniProt P08236); assay: inhibition of human liver β-glucuronidase; settings: read-out: % Inhibition of Glycosidase Activity, β-Glucuronidase
T2 construct: Human liver glycosidases were assayed; from tissue; host or cells: human liver
T2 sequence (P08236 23-633 limits assumed): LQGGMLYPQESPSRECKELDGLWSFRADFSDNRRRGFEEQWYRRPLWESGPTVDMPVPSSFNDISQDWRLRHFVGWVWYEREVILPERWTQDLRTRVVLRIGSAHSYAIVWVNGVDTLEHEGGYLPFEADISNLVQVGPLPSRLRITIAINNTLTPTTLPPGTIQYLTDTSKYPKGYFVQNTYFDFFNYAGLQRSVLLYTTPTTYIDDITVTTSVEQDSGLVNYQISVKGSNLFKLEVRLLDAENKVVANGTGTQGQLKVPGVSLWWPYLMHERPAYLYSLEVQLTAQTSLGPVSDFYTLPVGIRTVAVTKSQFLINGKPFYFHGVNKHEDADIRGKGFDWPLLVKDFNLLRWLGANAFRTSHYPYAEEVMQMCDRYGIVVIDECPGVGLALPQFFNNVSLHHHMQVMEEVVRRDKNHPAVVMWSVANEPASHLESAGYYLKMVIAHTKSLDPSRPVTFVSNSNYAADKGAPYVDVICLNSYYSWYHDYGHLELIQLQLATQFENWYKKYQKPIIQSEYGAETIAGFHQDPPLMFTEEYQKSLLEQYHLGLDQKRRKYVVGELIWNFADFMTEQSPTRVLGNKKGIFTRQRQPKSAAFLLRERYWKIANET
Procedure: as §1

Lysosomal α-Mannosidase = molecular target: T3, Lysosomal α-Mannosidase (Homo sapiens, UniProt O00754); assay: inhibition of human liver lysosomal α-mannosidase; settings: for inhibition at 1000 µM: 1 mM inhibitor, read-out: % Inhibition of Glycosidase Activity, α-Mannosidase Lysosomal
T3 construct: Human liver glycosidases were assayed; from tissue; host or cells: human liver
T3 sequence (O00754 50-1011): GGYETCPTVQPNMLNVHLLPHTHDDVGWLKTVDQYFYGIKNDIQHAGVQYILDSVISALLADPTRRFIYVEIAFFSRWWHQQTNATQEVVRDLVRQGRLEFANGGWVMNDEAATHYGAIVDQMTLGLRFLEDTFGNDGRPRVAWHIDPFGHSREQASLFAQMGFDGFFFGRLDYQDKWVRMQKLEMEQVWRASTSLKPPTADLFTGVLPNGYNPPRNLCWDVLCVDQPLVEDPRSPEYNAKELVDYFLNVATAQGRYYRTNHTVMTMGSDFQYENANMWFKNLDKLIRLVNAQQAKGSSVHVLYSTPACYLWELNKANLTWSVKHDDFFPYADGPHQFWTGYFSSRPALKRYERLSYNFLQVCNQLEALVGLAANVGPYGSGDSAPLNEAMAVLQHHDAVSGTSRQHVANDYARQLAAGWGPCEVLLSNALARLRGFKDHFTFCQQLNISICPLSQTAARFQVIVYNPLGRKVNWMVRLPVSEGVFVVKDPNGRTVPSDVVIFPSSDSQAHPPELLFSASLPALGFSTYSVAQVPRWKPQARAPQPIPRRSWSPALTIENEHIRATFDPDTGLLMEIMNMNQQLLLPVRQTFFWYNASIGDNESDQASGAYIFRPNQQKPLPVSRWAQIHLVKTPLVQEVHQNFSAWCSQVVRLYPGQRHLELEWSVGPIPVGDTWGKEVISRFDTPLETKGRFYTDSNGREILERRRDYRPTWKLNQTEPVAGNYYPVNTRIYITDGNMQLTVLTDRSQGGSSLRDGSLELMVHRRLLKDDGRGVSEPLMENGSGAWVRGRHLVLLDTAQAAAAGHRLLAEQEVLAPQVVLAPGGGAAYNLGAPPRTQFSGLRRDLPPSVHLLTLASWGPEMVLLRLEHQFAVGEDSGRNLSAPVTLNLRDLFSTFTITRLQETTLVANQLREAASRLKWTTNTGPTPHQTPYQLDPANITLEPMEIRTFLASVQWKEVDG
Procedure: as §1

SMILES | % Inhibition of Glycosidase Activity, β-Glucosidase (β-Glucosidase) [%] | inhibition at 1000 µM (α-Galactosidase; 1 mM inhibitor) [%] | inhibition at 1000 µM (β-Glucuronidase; 1 mM inhibitor) [%] | inhibition at 1000 µM (Lysosomal α-Mannosidase) [%] | inhibition of lysosomal α-mannosidase (in words) (Lysosomal α-Mannosidase; compared with DIM (3)) | inhibition at 1000 µM (α-Galactosidase) [%] | inhibition at 1000 µM (β-Glucuronidase) [%]
OC[C@H]1N[C@H](CO)[C@@H](O)C(O)[C@@H]1O (stereo partly drawn) [αHomoDMJ (2)] | 0 | 0 | 0 | 49 | – | – | –
OC[C@@H](O)[C@H]1N[C@H](CO)[C@@H](O)[C@H]1O [αHomoDIM (4), 2,5-dideoxy-2,5-imino-D-glycero-D-talo-heptitol] | 23 | 11 | 0 | 71 | decreases the inhibition of the lysosomal and neutral enzymes | – | –
NC[C@H]1O[C@H]([C@H](O)CO)[C@H](O)[C@@H]1O [Manhepamine (5), 1-amino-2,5-anhydro-1-deoxy-D-glycero-D-talo-heptitol] | 14 | 0 | 7 | 2 | – | – | –
OC[C@H]1NC[C@@H](O)[C@@H](O)[C@@H]1O [DMJ (1), deoxymannojirimycin] | 0 | – | – | 58 | – | 0 | 53
OC[C@@H](O)[C@H]1NC[C@@H](O)[C@H]1O [DIM (3)] | 16 | 0 | 9 | 97 | – | – | –
